In ChEMBL document CHEMBL1201862, “PubChem BioAssay data set” (2004):
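Test compounds were applied to cells in 96-well plates for 48 hours at 5 doses. Here, GI50 denotes the concentration required for 50% inhibition of growth.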 Activity calls are given as the source filed them. Rule as the data show it: active = GI50 up to about 1.1 µM and inactive = higher.

Key:
Experiment in all cases: growth of human tumour cells (NCI), 48 h
OVCAR-3 = system: OVCAR-3
BT-549 = system: BT-549
EKVX = system: EKVX
CAKI-1 = system: CAKI-1
LOX IMVI = system: LOX IMVI
HCT-116 = system: HCT-116
SNB-19 = system: SNB-19
Malme-3M = system: Malme-3M
OVCAR-5 = system: OVCAR-5
UACC-62 = system: UACC-62
KM-20L2 = system: KM-20L2
MDA-MB-435 = system: MDA-MB-435
MDA-N = system: MDA-N
HOP-62 = system: HOP-62
SF-268 = system: SF-268
KM12 = system: KM12
SR = system: SR
SK-MEL-28 = system: SK-MEL-28
RXF 393 = system: RXF 393
CCRF-CEM = system: CCRF-CEM

Measured: GI50

O=c1oc2ccccc2c(O)c1C(C/C(CCN1CCCC1)=N/O)c1ccccc1 (stereo unspecified)
inactive: OVCAR-3 > 100 µM | BT-549 31.7 µM | EKVX > 100 µM | CAKI-1 > 100 µM | LOX IMVI > 100 µM | HCT-116 > 100 µM | SNB-19 > 100 µM | Malme-3M > 100 µM | OVCAR-5 > 100 µM | UACC-62 > 100 µM | KM-20L2 > 100 µM | MDA-MB-435 > 100 µM | MDA-N > 100 µM | HOP-62 > 100 µM | SF-268 > 100 µM | KM12 > 100 µM | SR > 100 µM | SK-MEL-28 > 100 µM

CC(C(=O)O)/C(=C\c1ccc2c(c1)OCO2)C(=O)O (stereo unspecified)
inactive: OVCAR-3 > 100 µM | BT-549 > 100 µM | EKVX > 53.6 µM | CAKI-1 > 100 µM | LOX IMVI > 100 µM | HCT-116 > 100 µM | SNB-19 > 100 µM | Malme-3M > 100 µM | OVCAR-5 > 10 µM | UACC-62 > 100 µM | RXF 393 > 100 µM | KM-20L2 > 100 µM | MDA-MB-435 > 100 µM | MDA-N > 100 µM | HOP-62 > 100 µM | SF-268 > 100 µM | KM12 > 100 µM | SK-MEL-28 > 100 µM

CC(=O)CC[N+](C)(C)C
inactive: OVCAR-3 37.3 µM | BT-549 35 µM | EKVX 17.7 µM | CAKI-1 1.9 µM | LOX IMVI 14.1 µM | HCT-116 25.2 µM | SNB-19 22.7 µM | Malme-3M 16.1 µM | OVCAR-5 44.6 µM | UACC-62 26.8 µM | RXF 393 12.9 µM | KM-20L2 25.7 µM | CCRF-CEM 5.24 µM | MDA-MB-435 37.8 µM | MDA-N 40.7 µM | HOP-62 > 100 µM | SF-268 44.3 µM | KM12 77.3 µM | SR 7.85 µM | SK-MEL-28 28.5 µM
